Key:
MOLT-4 cells = assay: MOLT-4 cell viability, MTT assay; type: cell-based; details: Homo sapiens, MOLT-4, 48 h, 48 h exposure
Method in brief: (§1)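 Cells grown in RPMI 1640 with 10% heat-inactivated FBS at 37° C, 5% CO2, exposed 48 h to nine 3.16-fold serial compound dilutions in triplicate. MTT added for 4 h, SDS/HCl solubilisation overnight, absorbance at 540 nm; IC50 by four-parameter fit.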

Bcl-xL protein = molecular target: T1, Bcl-xL protein (Homo sapiens, UniProt Q07817, N197C); assay: Fluorescence quenching assay (PUMA peptide displacement); type: binding; details: 1 nM protein, 400 nM peptide, 2 hours at 23° C.; KI determined from IC50
T1 construct: (2-197)[N197C]; His-His (two His8 stretches joined by a Gly/Ala/Ser/Thr linker)
T1 sequence (Q07817 2-197 N197C): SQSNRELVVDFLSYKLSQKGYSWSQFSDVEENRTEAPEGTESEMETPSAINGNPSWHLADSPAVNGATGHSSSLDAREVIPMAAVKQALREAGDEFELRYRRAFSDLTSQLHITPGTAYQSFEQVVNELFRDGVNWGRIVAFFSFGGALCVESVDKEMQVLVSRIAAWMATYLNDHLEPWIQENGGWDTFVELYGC
Method in brief: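 Displacement of a TQ5WS-quencher-labelled PUMA peptide (400 nM) from Cy5-labelled His-tagged Bcl-xL 2-197 N197C (1 nM) raises fluorescence. An 11-point compound dilution was incubated 2 h at 23 °C in HEPES 10 mM, NaCl 150 mM, 0.05% Tween 20, pH 7.4, 5% DMSO. Fluorescence was read at Ex 620/Em 680 nm, and KI was derived from IC50.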

BCLXL [1] = molecular target: T2, BCLXL (Homo sapiens, UniProt Q07817, V10N/V9A); assay: Fluorescence polarisation assay (PUMA-based probe displacement); type: binding; note: 20 nM protein, 10 nM fluorescent probe
T2 sequence (Q07817 with tags, fused parts or gaps V9A/V10N): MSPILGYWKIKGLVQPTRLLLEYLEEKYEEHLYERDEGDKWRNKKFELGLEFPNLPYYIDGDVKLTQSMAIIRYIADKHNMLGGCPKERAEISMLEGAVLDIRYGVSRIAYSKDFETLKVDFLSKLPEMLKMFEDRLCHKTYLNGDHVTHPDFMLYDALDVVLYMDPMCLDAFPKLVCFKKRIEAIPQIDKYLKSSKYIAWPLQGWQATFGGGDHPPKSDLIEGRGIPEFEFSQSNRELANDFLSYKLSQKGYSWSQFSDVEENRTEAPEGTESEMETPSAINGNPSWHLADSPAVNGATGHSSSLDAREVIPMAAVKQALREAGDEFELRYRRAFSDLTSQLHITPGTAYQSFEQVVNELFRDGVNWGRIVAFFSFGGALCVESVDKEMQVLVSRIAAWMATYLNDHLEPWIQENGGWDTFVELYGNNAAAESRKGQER

H146 cells = assay: H146 cell viability, MTT assay; type: cell-based; details: Homo sapiens, NCI-H146, 48 h, 48 h exposure
Method in brief: as §1

BCLXL [2] = molecular target: T2, BCLXL; assay: AlphaLISA assay (BIM peptide displacement); type: binding; details: 20 pM protein, 1 nM peptide
Method in brief: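 Competitive displacement of fluorescein-labelled BIM peptide (1 nM) from biotinylated GST-BCL-XL(2-209) (20 pM) in 10 mM HEPES, 150 mM NaCl, 0.05% Tween 20, pH 7.4, 4% DMSO; 11-point dilutions. Overnight at 23° C with acceptor beads, then donor beads 2 h; Alpha signal at 615 nm.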

Row | SMILES | IC50 (MOLT-4 cells) | Ki (Bcl-xL protein) | Ki (BCLXL [1]) | IC50 (H146 cells) | IC50 (BCLXL [2])
1 | Cc1cc(N(C)c2nc(C(=O)O)c(CCCOc3ccc(C#CCN(C)C)cc3F)s2)nnc1Nc1nc2ccccc2s1 [Example 50, 2-[[6-(1,3-Benzothiazol-2-ylamino)-5-methyl-pyridazin-3-yl]-methyl-amino]-5-[3-[4-[3-(dimethylamino)prop-1-ynyl]-2-fluoro-phenoxy]propyl]thiazole-4-carboxylic acid] | 0.462 nM | 0.0044 nM | 1.2 nM | 2.84 nM | 0.0074 nM
2 | CN(C)CC#Cc1ccc(OCCCc2sc(N(C)c3cc(C4CC4)c(Nc4nc5ccccc5s4)nn3)nc2C(=O)O)c(F)c1 [Example 62, 2-({6-[(1,3-Benzothiazol-2-yl)amino]-5-cyclopropylpyridazin-3-yl}(methyl)amino)-5-(3-{4-[3-(dimethylamino)prop-1-yn-1-yl]-2-fluorophenoxy}propyl)-1,3-thiazole-4-carboxylic acid] | 0.444 nM | 0.006 nM | < 1 nM | 4.66 nM | 0.11 nM
3 | CNCC#Cc1ccc(OCCCc2sc(N(CCC(O)COC)c3cc(C)c(Nc4nc5ccccc5s4)nn3)nc2C(=O)O)c(F)c1 (stereo not drawn) [Example 109, 2-[[6-(1,3-Benzothiazol-2-ylamino)-5-methyl-pyridazin-3-yl]-(3-hydroxy-4-methoxy-butyl)amino]-5-[3-[2-fluoro-4-[3-(methylamino)prop-1-ynyl]phenoxy]propyl]thiazole-4-carboxylic acid] | 19.8 nM | 0.0011 nM | < 1 nM | 6.38 nM | 0.011 nM
4 | Cc1cc(N(CC(O)CO)c2nc(C(=O)O)c(CCCOc3ccc(C#CCN(C)C)cc3F)s2)nnc1Nc1nc2ccccc2s1 (stereo not drawn) [Example 122, 2-[[6-(1,3-Benzothiazol-2-ylamino)-5-methyl-pyridazin-3-yl]-(2,3-dihydroxypropyl)amino]-5-[3-[4-[3-(dimethylamino)prop-1-ynyl]-2-fluoro-phenoxy]propyl]thiazole-4-carboxylic acid] | 280 nM | 0.003 nM | – | 51.4 nM | 0.0098 nM
5 | Cc1cc(N(CCCC(O)CN(C)CCN(C)C)c2nc(C(=O)O)c(CCCOc3ccc(C#CCN(C)C)cc3F)s2)nnc1Nc1nc2ccccc2s1 (stereo not drawn) [Example 124, 2-[[6-(1,3-Benzothiazol-2-ylamino)-5-methyl-pyridazin-3-yl]-[5-[2-(dimethylamino)ethyl-methyl-amino]-4-hydroxy-pentyl]amino]-5-[3-[4-[3-(dimethylamino)prop-1-ynyl]-2-fluoro-phenoxy]propyl]thiazole-4-carboxylic acid] | 19.2 nM | 0.0017 nM | < 1 nM | 50.6 nM | 0.0076 nM
6 | CNCC#Cc1ccc(OCCCc2sc(N(CCCCCO)c3cc(C)c(Nc4nc5ccccc5s4)nn3)nc2C(=O)O)c(F)c1 [Example 128] | 18.1 nM | 0.028 nM | – | 20.8 nM | 0.013 nM
7 | Cc1cc(N(CCCCO)c2nc(C(=O)O)c(CCCOc3ccc(C#CCN(C)C)cc3F)s2)nnc1Nc1nc2ccccc2s1 [Example 134, 2-[[6-(1,3-Benzothiazol-2-ylamino)-5-methyl-pyridazin-3-yl]-(4-hydroxybutyl)amino]-5-[3-[4-[3-(dimethylamino)prop-1-ynyl]-2-fluoro-phenoxy]propyl]thiazole-4-carboxylic acid] | 0.783 nM | 0.001 nM | < 1 nM | 1.91 nM | 0.0053 nM
8 | Cc1cc(N(CCCCCO)c2nc(C(=O)O)c(CCCOc3ccc(C#CCN(C)C)cc3F)s2)nnc1Nc1nc2ccccc2s1 [Example 141, 2-[[6-(1,3-Benzothiazol-2-ylamino)-5-methyl-pyridazin-3-yl]-(5-hydroxypentyl)amino]-5-[3-[4-[3-(dimethylamino)prop-1-ynyl]-2-fluoro-phenoxy]propyl]thiazole-4-carboxylic acid] | – | 0.0055 nM | < 1 nM | – | 0.014 nM
9 | CNCC#Cc1ccc(OCCCc2sc(N(CCCC(O)C[N+](C)(C)C)c3cc(C)c(Nc4nc5ccccc5s4)nn3)nc2C(=O)[O-])c(F)c1 (stereo not drawn) [Example 144, 2-[[6-(1,3-Benzothiazol-2-ylamino)-5-methyl-pyridazin-3-yl]-[4-hydroxy-5-(trimethylammonio)pentyl]amino]-5-[3-[2-fluoro-4-[3-(methylamino)prop-1-ynyl]phenoxy]propyl]thiazole-4-carboxylate] | 430 nM | 0.0039 nM | < 1 nM | 14500 nM | 0.014 nM
10 | CNCC#Cc1ccc(OCCCc2sc(N(CCCC(O)C[N+](C)(C)CCCS(=O)(=O)[O-])c3cc(C)c(Nc4nc5ccccc5s4)nn3)nc2C(=O)O)c(F)c1 (stereo not drawn) [Example 146, 3-[[5-[[6-(1,3-Benzothiazol-2-ylamino)-5-methyl-pyridazin-3-yl]-[4-carboxy-5-[3-[2-fluoro-4-[3-(methylamino)prop-1-ynyl]phenoxy]propyl]thiazol-2-yl]amino]-2-hydroxy-pentyl]-dimethyl-ammonio]propane-1-sulfonate] | 668 nM | 0.0012 nM | < 1 nM | 971 nM | 0.022 nM
11 | CNCC(O)CCCN(c1cc(C)c(Nc2nc3ccccc3s2)nn1)c1nc(C(=O)O)c(CCCOc2ccc(C#CCN(C)C)cc2F)s1 (stereo not drawn) [Example 150, 2-[[6-(1,3-Benzothiazol-2-ylamino)-5-methyl-pyridazin-3-yl]-[4-hydroxy-5-(methylamino)pentyl]amino]-5-[3-[4-[3-(dimethylamino)prop-1-ynyl]-2-fluoro-phenoxy]propyl]thiazole-4-carboxylic acid] | 136 nM | 0.0017 nM | < 1 nM | 16.8 nM | 0.013 nM
12 | C/C(=C\c1sc(N(C)c2cc(C)c(Nc3nc4ccccc4s3)nn2)nc1C(=O)O)COc1ccc(C#CCN(C)C)cc1F [Example 163, 2-({6-[(1,3-Benzothiazol-2-yl)amino]-5-methylpyridazin-3-yl}(methyl)amino)-5-[(1E)-3-{4-[3-(dimethylamino)prop-1-yn-1-yl]-2-fluorophenoxy}-2-methylprop-1-en-1-yl]-1,3-thiazole-4-carboxylic acid] | 96.2 nM | 0.02 nM | < 1 nM | 1040 nM | 0.18 nM
13 | Cc1cc(N(C)c2nc(C(=O)O)c(CC(O)COc3ccc(C#CCN(C)C)cc3F)s2)nnc1Nc1nc2ccccc2s1 (stereo not drawn) [Example 164, 2-({6-[(1,3-benzothiazol-2-yl)amino]-5-methylpyridazin-3-yl}(methyl)amino)-5-(3-{4-[3-(dimethylamino)prop-1-yn-1-yl]-2-fluorophenoxy}-2-hydroxypropyl)-1,3-thiazole-4-carboxylic acid] | 12.9 nM | 0.0019 nM | < 1 nM | 34.6 nM | 0.0071 nM
14 | Cc1cc(N(CCCCCN(C)C2CCNCC2)c2nc(C(=O)O)c(CCCOc3ccc(C#CCN(C)C)cc3F)s2)nnc1Nc1nc2ccccc2s1 [Example 165, 2-[[6-(1,3-Benzothiazol-2-ylamino)-5-methyl-pyridazin-3-yl]-[5-[methyl(4-piperidyl)amino]pentyl]amino]-5-[3-[4-[3-(dimethylamino)prop-1-ynyl]-2-fluoro-phenoxy]propyl]thiazole-4-carboxylic acid] | 430 nM | 0.0059 nM | < 1 nM | 211 nM | 0.019 nM
15 | Cc1cc(N(CCCCNCCN2CCN(C)CC2)c2nc(C(=O)O)c(CCCOc3ccc(C#CCN(C)C)cc3F)s2)nnc1Nc1nc2ccccc2s1 [Example 168, 2-[[6-(1,3-Benzothiazol-2-ylamino)-5-methyl-pyridazin-3-yl]-[4-[2-(4-methylpiperazin-1-yl)ethylamino]butyl]amino]-5-[3-[4-[3-(dimethylamino)prop-1-ynyl]-2-fluoro-phenoxy]propyl]thiazole-4-carboxylic acid] | 178 nM | 0.0026 nM | < 1 nM | – | 0.012 nM
16 | Cc1cc(N(CCCC(O)CNCCN2CCCCC2)c2nc(C(=O)O)c(CCCOc3ccc(C#CCN(C)C)cc3F)s2)nnc1Nc1nc2ccccc2s1 (stereo not drawn) [Example 173, 2-[[6-(1,3-Benzothiazol-2-ylamino)-5-methyl-pyridazin-3-yl]-[4-hydroxy-5-[2-(1-piperidyl)ethylamino]pentyl]amino]-5-[3-[4-[3-(dimethylamino)prop-1-ynyl]-2-fluoro-phenoxy]propyl]thiazole-4-carboxylic acid] | 127 nM | 0.0033 nM | – | 208 nM | 0.0079 nM
17 | CNCC#Cc1ccc(OC/C(C)=C/c2sc(N(C)c3cc(C)c(Nc4nc5ccccc5s4)nn3)nc2C(=O)O)c(F)c1 [Example 174, 2-({6-[(1,3-Benzothiazol-2-yl)amino]-5-methylpyridazin-3-yl}(methyl)amino)-5-[(1E)-3-{2-fluoro-4-[3-(methylamino)prop-1-yn-1-yl]phenoxy}-2-methylprop-1-en-1-yl]-1,3-thiazole-4-carboxylic acid] | 1660 nM | 0.043 nM | – | 12600 nM | 0.6 nM

From patent publication US12649733B2, “3,6-diamino-pyridazin-3-yl derivatives, pharmaceutical compositions containing them and their uses as pro-apoptotic agents” (LES LABORATOIRES SERVIER, priority 2019, dated 2026)
